Assay results reported in US20100255580A1, “Differentiation of Human Embryonic Stem Cells” (LIFESCCAN, INC., priority 2007, published 2010).

Test system: H9 embryonic stem cells
Format: cell-based, human
Description: Controls for each group included cells plated on […]-coated dishes and cultured in MEF-conditioned medium or cells plated on MEFs and cultured in ES medium. All groups contained three biological replicates and each biological replicate was repeated on two separate gene chips.
Sample preparation, hybridization, and image analysis were performed according to the Affymetrix Human Genome U133 Plus 2.0 Array. Following normalization and a log transformation, data analysis was performed using OmniViz® software (MA) and […] (VizXLabs, WA). Significant differences in gene expression between the samples were evaluated using analysis of variance and an F-test with adjusted P-value (Benjamini and
Hochberg correction) of ≦b 0.05. Only genes with a present call in at least one group were included in the analysis.

[1] = DE treatment in low serum, on MEFS

Activin A: a member of the TGFβ superfamily; R&D Systems; Group 2 = Activin A (100 ng/ml)
mean normalized intensity (log format), gene: Homo sapiens methyl-CpG binding protein MBD2 (MBD2) mRNA, complete cds. [1]: −1.702 | mean normalized intensity (log format), gene: Homo sapiens tachykinin, precursor 1 (TAC1), transcript variant beta, mRNA. [1]: 1.483 | mean normalized intensity (log format), gene: Homo sapiens testis expressed sequence 14 (TEX14), mRNA. [1]: −1.3824 | mean normalized intensity (log format), gene: Homo sapiens, Similar to LIM homeobox protein 8, clone IMAGE: 4839343, mRNA. [1]: −1.11 | mean normalized intensity (log format), gene: Homo sapiens, Similar to cadherin 6, type 2, K-cadherin (fetal kidney), clone MGC: 1470, mRNA, complete cds. [1]: 2.134 | mean normalized intensity (log format), gene: Homo sapiens, Similar to hypothetical protein FLJ10058, clone MGC: 34305 IMAGE: 5167647, mRNA, complete cds. [1]: 0.2156 | mean normalized intensity (log format), gene: Homo sapiens, Similar to hypothetical protein FLJ32001, clone MGC: 39559 IMAGE: 4828136, mRNA, complete cds. [1]: 1.269 | mean normalized intensity (log format), gene: Homo sapiens, clone IMAGE: 4067166, mRNA [1]: 0.277 | mean normalized intensity (log format), gene: Homo sapiens, clone IMAGE: 4828836, mRNA. [1]: −1.484 | mean normalized intensity (log format), gene: Homo sapiens, serine (or cysteine) proteinase inhibitor, clade B (ovalbumin), member 3, clone MGC: 12244, mRNA, complete cds. [1]: −1.566 | mean normalized intensity (log format), gene: Human mRNA upregulated during camptothecin-induced apoptosis of U937 cells. [1]: −0.1892 | mean normalized intensity (log format), gene: Human platelet-derived growth factor alpha-receptor (PDGFRA) mRNA, exons 13-16 [1]: 2.905 | mean normalized intensity (log format), gene: KIAA1151 protein [1]: 1.009 | mean normalized intensity (log format), gene: caldesmon 1 [1]: 5.634 | mean normalized intensity (log format), gene: nuclear receptor subfamily 1, group I, member 3 [1]: −0.1968 | mean normalized intensity (log format), gene: paternally expressed 3 (r2033) [1]: −0.0118 | mean normalized intensity (log format), gene: paternally expressed 3 (r2093) [1]: −3.492 | log intensity, AD036 mRNA (low serum, on MATRIGEL): −0.5033 | log intensity, ADP-ribosylation factor 4-like (ARF4L) (low serum, on MATRIGEL): 1.635 | log intensity, BACE mRNA for beta-site APP cleaving enzyme I-476 (low serum, on MATRIGEL): 0.4855 | log intensity, BTB (POZ) domain containing 2 (BTBD2) (low serum, on MATRIGEL): 1.101 | log intensity, CXCR4 gene encoding receptor CXCR4 (low serum, on MATRIGEL): 3.111 | log intensity, Cluster Incl. AB002344: Human mRNA for KIAA0346 gene (r901) (low serum, on MATRIGEL): 2.157 | log intensity, Cluster Incl. AB002344: Human mRNA for KIAA0346 gene (r941) (low serum, on MATRIGEL): 1.896 | log intensity, Cluster Incl. L37033: Human FK-506 binding protein homologue (FKBP38) (low serum, on MATRIGEL): 0.6156 | log intensity, Cluster Incl. N80935: zb07g06.s1 Homo sapiens cDNA (low serum, on MATRIGEL): 2.124 | log intensity, ESTs (r403) (low serum, on MATRIGEL): 0.7843 | log intensity, ESTs (r404) (low serum, on MATRIGEL): −1.263 | log intensity, ESTs (r405) (low serum, on MATRIGEL): −1.717 | log intensity, ESTs (r442) (low serum, on MATRIGEL): 2.774 | log intensity, ESTs (r453) (low serum, on MATRIGEL): −1.637 | log intensity, ESTs (r473) (low serum, on MATRIGEL): −0.04834 | log intensity, ESTs (r491) (low serum, on MATRIGEL): −1.344 | log intensity, ESTs (r522) (low serum, on MATRIGEL): −0.8015 | log intensity, ESTs (r523) (low serum, on MATRIGEL): −2.576 | log intensity, ESTs (r524) (low serum, on MATRIGEL): 0.4996 | log intensity, ESTs (r556) (low serum, on MATRIGEL): −0.1206 | log intensity, ESTs (r567) (low serum, on MATRIGEL): −2.015 | log intensity, ESTs (r627) (low serum, on MATRIGEL): 2.542 | log intensity, ESTs (r741) (low serum, on MATRIGEL): −0.004009 | log intensity, ESTs (r745) (low serum, on MATRIGEL): 1.386 | log intensity, ESTs (r766) (low serum, on MATRIGEL): 1.047 | log intensity, ESTs (r767) (low serum, on MATRIGEL): −1.485 | log intensity, ESTs (r891) (low serum, on MATRIGEL): −2.079 | log intensity, ESTs (r916) (low serum, on MATRIGEL): −0.1464 | log intensity, ESTs (r938) (low serum, on MATRIGEL): −1.246 | log intensity, ESTs (r980) (low serum, on MATRIGEL): −0.1842 | log intensity, ESTs (r1021) (low serum, on MATRIGEL): −0.4037 | log intensity, ESTs (r1022) (low serum, on MATRIGEL): 2.144 | log intensity, ESTs (r1059) (low serum, on MATRIGEL): 0.7835 | log intensity, ESTs (r1060) (low serum, on MATRIGEL): 1.175 | log intensity, ESTs (r1110) (low serum, on MATRIGEL): 0.533 | log intensity, ESTs (r1115) (low serum, on MATRIGEL): −1.164 | log intensity, ESTs, Highly similar to AF229172 1 class III myosin (low serum, on MATRIGEL): −0.4755 | log intensity, ESTs, Moderately similar to ALU4_HUMAN ALU SUBFAMILY SB2 (low serum, on MATRIGEL): −1.104 | log intensity, ESTs, Moderately similar to JC4969 pig-c protein (low serum, on MATRIGEL): −2.397 | log intensity, ESTs, Moderately similar to NFY-C (low serum, on MATRIGEL): −0.7494 | log intensity, ESTs, Weakly similar to A46302 PTB-associated splicing factor, long form (low serum, on MATRIGEL): 0.8941 | log intensity, ESTs, Weakly similar to ALU8_HUMAN ALU SUBFAMILY SX (low serum, on MATRIGEL): 2.766 | log intensity, ESTs, Weakly similar to ALUC_HUMAN (low serum, on MATRIGEL): 1.08 | log intensity, ESTs, Weakly similar to ALUF_HUMAN (low serum, on MATRIGEL): −1.032 | log intensity, ESTs, Weakly similar to KIAA1330 protein (low serum, on MATRIGEL): −0.9252 | log intensity, ESTs, Weakly similar to KIAA1399 protein (low serum, on MATRIGEL): −0.8312 | log intensity, ESTs, Weakly similar to T32252 hypothetical protein T15B7.2 (low serum, on MATRIGEL): 2.21 | log intensity, ESTs, Weakly similar to Z132_HUMAN ZINC FINGER PROTEIN 13 (low serum, on MATRIGEL): 1.049 | log intensity, F37Esophageal cancer-related gene-coding leucine-zipper motif (FEZ1) (low serum, on MATRIGEL): −0.1288 | log intensity, FLICE-like inhibitory protein short form (low serum, on MATRIGEL): 0.1358 | log intensity, GS1999full mRNA (low serum, on MATRIGEL): 0.137 | log intensity, H1 histone family, member X (H1FX) (low serum, on MATRIGEL): 3.217
